PubChem BioAssay (NCI)
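Results reflect a 48-hour exposure of cells in 96-well plates to compound at five concentrations. The concentration for 50% growth inhibition is given as GI50. Definition used: TGI = concentration required for complete inhibition of growth.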

Assays:
Assay in all cases: NCI tumour cell line growth inhibition, 48 h
786-0 renal = system: 786-0 renal
ACHN renal = system: ACHN renal
BT-549 breast = system: BT-549 breast
CCRF-CEM leukemia = system: CCRF-CEM leukemia
COLO 205 colon = system: COLO 205 colon
HS 578T breast = system: HS 578T breast
SF-295 CNS = system: SF-295 CNS
SNB-75 CNS = system: SNB-75 CNS
SR leukemia = system: SR leukemia
RPMI-8226 leukemia = system: RPMI-8226 leukemia

Row | Compound | GI50 (786-0 renal) [µM] | TGI (786-0 renal) [µM] | GI50 (ACHN renal) [µM] | TGI (ACHN renal) [µM] | GI50 (BT-549 breast) [µM] | TGI (BT-549 breast) [µM] | GI50 (CCRF-CEM leukemia) [µM] | TGI (CCRF-CEM leukemia) [µM] | GI50 (COLO 205 colon) [µM] | TGI (COLO 205 colon) [µM] | GI50 (HS 578T breast) [µM] | TGI (HS 578T breast) [µM] | GI50 (SF-295 CNS) [µM] | TGI (SF-295 CNS) [µM] | GI50 (SNB-75 CNS) [µM] | TGI (SNB-75 CNS) [µM] | GI50 (SR leukemia) [µM] | TGI (SR leukemia) [µM] | TGI (RPMI-8226 leukemia) [µM] | GI50 (RPMI-8226 leukemia) [µM]
1 | C[C@H](Nc1cc(Cl)nc2c1cnn2[C@@H]1O[C@H](COP(=O)(O)CP(=O)(O)O)[C@@H](O)[C@H]1O)c1ccccc1F | > 100 | > 100 | > 100 | > 100 | > 100 | > 100 | > 100 | > 100 | > 100 | > 100 | > 100 | > 100 | > 100 | > 100 | > 100 | > 100 | > 100 | > 100 |  | 
2 | Cc1cc2cc3c(=O)[nH]c(=O)[nH]c3nc2cc1C |  | > 100 |  | > 100 |  | > 100 |  |  |  | > 100 |  | > 100 |  | > 100 |  | 90 |  | > 100 | > 100 | 
3 | Cn1c(=O)c(Oc2ccc(F)cc2)cc2cnc(NC3CCOCC3)nc21 | > 25 | > 25 | > 25 | > 25 | > 25 | > 25 | > 25 | > 25 | > 25 | > 25 | > 25 | > 25 | > 25 | > 25 | > 25 | > 25 | > 25 | > 25 | > 25 | > 25
4 | Oc1ccc(Nc2c3ccccc3nc3occ(Cl)c23)cc1 | 12.9 | > 100 | 15.2 | > 100 | 19.4 | > 100 | 1.42 | 6.12 | 4.12 | > 100 | 5.62 | > 100 | 4.65 | > 100 |  |  | 2.3 | 8.62 | 4.81 | 1.61
5 | CC1CCN(C(=O)OCc2nc3nc(Cl)nc(N4CCOCC4)c3[nH]2)CC1 | 1.29 | 2.69 | 0.583 | 1.88 | 1.25 | 3.07 | 0.29 | 0.964 | 1.75 | 4.99 | 1.76 | 4.85 | 3.76 | 15.3 | 1.06 | 2.29 | 0.331 | 3.31 |  | 
6 | O=[N+]([O-])c1cccc2ccc(N/N=C/c3ccccc3O)nc12 | > 100 | > 100 | > 100 | > 100 | > 100 | > 100 |  |  | 1.91 | > 19.8 | 72.4 | > 100 | > 87.6 | > 100 | > 37.8 | > 70.6 | 0.148 | 7.03 | 3.12 | 0.027
7 | CC(C(=O)O)c1cccc(Oc2ccccc2)c1 (stereo unspecified) | > 100 | > 100 | > 100 | > 100 | > 100 | > 100 | > 100 | > 100 | > 100 | > 100 | > 100 | > 100 | > 100 | > 100 | > 100 | > 100 | > 100 | > 100 | > 100 | > 100
8 | O=C(/C=C/C=C/c1ccccc1)c1ccccc1 |  | 27.4 |  |  |  | 43.5 |  |  |  | 31.5 |  | 55.4 |  |  |  | 41.9 |  | 34.5 | 72.5 | 
9 | CC(C)OC(=O)[C@H](C)NP(=O)(OC[C@H]1O[C@@H](n2ccc(=O)[nH]c2=O)[C@](C)(F)[C@@H]1O)Oc1ccccc1 (stereo partly specified) | > 100 | > 100 | > 100 | > 100 | > 100 | > 100 | > 100 | > 100 |  |  | > 100 | > 100 | > 100 | > 100 | > 100 | > 100 | > 100 | > 100 |  | 
10 | O=c1[nH]c2ccc(O)cc2o1 |  | > 100 |  | > 100 |  | > 100 |  | > 100 |  | > 100 |  | > 100 |  | > 100 |  | > 100 |  | > 100 |  | 
11 | COC(=O)c1ccc(-c2c(C#N)[n+](=O)c3cc(Cl)c(Cl)cc3n2[O-])cc1 | 17.6 | 35.6 | 17.2 | 35.2 | 16.8 | 34 | 2.85 | 7.79 | 22 | 52.1 | 25.7 | 92.2 | 12.5 | 33.7 | 20.2 | 39.8 |  |  | 83.4 | 29.8
